Results reported in ChEMBL document CHEMBL1144577, “1,5-Biaryl pyrrole derivatives as EP1 receptor antagonists. Structure-activity relationships of 6-substituted and 5,6-disubstituted benzoic acid derivatives” (Bioorg Med Chem Lett, 2007).

Tests used:
[1] = target: T1, Prostaglandin E2 receptor EP1 subtype (Homo sapiens, UniProt P34995); assay: Displacement of [3H]PGE2 from human recombinant EP1 receptor expressed in CHOK1 cell membrane; type: cell membranes, CHO-K1
T1 sequence (P34995 whole entry): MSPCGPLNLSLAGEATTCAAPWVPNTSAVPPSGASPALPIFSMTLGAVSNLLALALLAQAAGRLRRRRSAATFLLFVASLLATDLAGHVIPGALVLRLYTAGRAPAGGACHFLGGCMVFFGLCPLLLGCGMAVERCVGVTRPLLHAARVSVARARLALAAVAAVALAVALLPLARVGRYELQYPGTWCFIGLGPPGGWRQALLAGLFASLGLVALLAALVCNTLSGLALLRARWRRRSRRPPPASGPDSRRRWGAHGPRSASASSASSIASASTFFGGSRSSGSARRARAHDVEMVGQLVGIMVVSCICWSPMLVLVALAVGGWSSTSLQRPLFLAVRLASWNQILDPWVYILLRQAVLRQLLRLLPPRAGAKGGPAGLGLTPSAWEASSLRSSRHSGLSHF

[2] = system: Rattus norvegicus; assay: Reversal of hypersensitivity in FCA rat model of inflammatory pain at 5 mg/kg, po; type: functional
[3] = system: Rattus norvegicus; assay: Normalized AUC (0 to t) in rat at 3 mg/kg, po; type: ADME, organism-based; design: dose 3 mg/kg, route oral; conditions: in vivo
[4] = Tmax in rat at 3 mg/kg, po; type: ADME, organism-based; design: dose 3 mg/kg, route oral; conditions: in vivo
[5] = Cmax in rat at 3 mg/kg, po; type: ADME, organism-based; design: dose 3 mg/kg, route oral; conditions: in vivo
[6] = Blood clearance in rat; type: ADME, organism-based
[7] = system: Rattus norvegicus; assay: Reversal of hypersensitivity in po dosed FCA rat model of inflammatory pain; type: functional
[8] = Volume of distribution at steady state in rat; type: ADME, organism-based; conditions: in vivo, read-out: Vss

SMILES	IC50 [1]	also measured
Cc1ccc(OCc2ccc(F)cc2)c(-c2ccc(C)n2-c2cc(N)c(C)c(C(=O)O)c2)c1	15.8 nM	
Cc1ccc(-c2cc(Br)ccc2OCc2ccc(F)cc2)n1-c1ccc(Cl)c(C(=O)O)c1	2.51 nM	
Cc1ccc(OCc2ccc(F)cc2)c(-c2ccc(C)n2-c2ccc(F)c(C(=O)O)c2)c1	15.8 nM	
Cc1ccc(-c2cc(F)ccc2OCc2ccc(F)cc2)n1-c1ccc(F)c(C(=O)O)c1	12.6 nM	
Cc1ccc(-c2cc(Br)ccc2OCc2ccc(F)cc2F)n1-c1ccc(OC(F)F)c(C(=O)O)c1	0.631 nM	
Cc1c(N)cc(-n2c(C)ccc2-c2cc(Cl)ccc2OCc2ccccc2)cc1C(=O)O	2 nM	Activity [2]: 35%; AUC/dose [3]: 39 kg·min/L; Tmax [4]: 30 min; Cmax [5]: 2940 nM
Cc1ccc(-n2c(C)ccc2-c2cc(Cl)ccc2OCc2ccc(F)cc2F)cc1C(=O)O	2.51 nM	
Cc1c(N)cc(-n2c(C)ccc2-c2cc(Br)ccc2OCc2ccccc2)cc1C(=O)O	3.16 nM	
Cc1c(N)cc(-n2c(C)ccc2-c2cc(C(F)(F)F)ccc2OCc2ccc(F)cc2)cc1C(=O)O	3.98 nM	
Cc1ccc(OCc2ccc(F)cc2)c(-c2ccc(C)n2-c2cc(C(=O)O)c3ccccc3c2)c1	79.4 nM	
Cc1ccc(-c2cc(Br)ccc2OCc2ccc(F)cc2)n1-c1cccc(C(=O)O)c1		clearance [6]: 42 mL/min/kg; ED50 [7]: 9.2 mg/kg; Vd [8]: 0.7 L/kg
Cc1ccc(-c2cc(Br)ccc2OCc2ccc(F)cc2F)n1-c1ccc(O)c(C(=O)O)c1	2 nM	
Cc1ccc(-c2cc(Br)ccc2OCc2ccc(F)cc2)n1-c1cc(C(=O)O)c2ccccc2c1	5.01 nM	AUC/dose [3]: 9 kg·min/L; Tmax [4]: 30 min; Cmax [5]: 520 nM
Cc1ccc(-c2cc(Br)ccc2OCc2ccccc2)n1-c1ccc(OC(F)F)c(C(=O)O)c1	5.01 nM	
Cc1ccc(-c2cc(Br)ccc2OCc2ccc(F)cc2F)n1-c1cc(C(=O)O)c2ccccc2c1	2.51 nM	
